Laboratory results taken from patent US7109012B2, “Recombinant lysophosphatidic acid phosphatase” (Azwell Inc., priority 1998, dated 2006).

Experiments:
Type in all cases: biochemical
[1] = molecular target: T1, Recombinant LPA Phosphatase (Homo sapiens, UniProt Q9NPH0); assay: Determination reagent (Reagent a / Reagent b), coupled enzymatic phosphate assay, absorbance at 570 nm; details: 5 minutes after Reagent b; for whether assayed by the determination reagent (change in absorbance at 570 nm): 0.2 mmol/l sample, 37° C.
T1 construct: comprises a signal peptide consisting of 40 amino acid residues at N-terminal, and was a novel phosphatase having 421 amino acid residues; 6xHis; made in house; host or cells: E. coli JM109, vector pQE-30
T1 sequence (Q9NPH0 48-428 limits assumed): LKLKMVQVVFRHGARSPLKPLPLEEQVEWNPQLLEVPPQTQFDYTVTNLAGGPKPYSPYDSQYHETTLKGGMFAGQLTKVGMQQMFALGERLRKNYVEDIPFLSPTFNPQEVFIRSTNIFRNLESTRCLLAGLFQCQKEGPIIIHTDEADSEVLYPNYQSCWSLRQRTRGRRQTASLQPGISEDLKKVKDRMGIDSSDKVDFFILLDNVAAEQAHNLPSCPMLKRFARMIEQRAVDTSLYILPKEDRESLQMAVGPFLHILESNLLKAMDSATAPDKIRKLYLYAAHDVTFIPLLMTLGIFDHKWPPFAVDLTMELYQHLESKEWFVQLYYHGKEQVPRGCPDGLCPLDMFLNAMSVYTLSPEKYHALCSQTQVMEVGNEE
Description: The following determination reagents (Reagent a, Reagent b) were prepared.
Each of the various LPAs such as 1-palmitoyl-LPA, 1-stearoyl-LPA, 1-oleoyl-LPA, 2-oleoyl-LPA, 1-linoleoyl-LPA and 1-arachidonoyl-LPA was dissolved in physiological saline containing a surfactant, to prepare a 0.2 mmol/l sample. Two-hundred and forty microliters of Reagent a was added to 8 μl of the sample, and the mixture was reacted at 37° C. for 5 minutes. Thereafter, 80 μl of Reagent b was added thereto, and the mixture was further reacted at 37° C. for 5 minutes. The change in the absorbance at a wavelength of 570 nm for 5 minutes after adding Reagent b was determined using reagent blank as a control.
The absorbance dramatically increases after addition of reagent b, reaching a peak in several minutes. In addition, each of various phospholipids such as 1,2-dipalmitoylphosphatidic acid (1,2-dipalmitoyl-PA), 1-palmitoylphosphatidylethanolamine (1-palmitoyl-LPE), and 1-palmitoylphosphatidylcholine (1-palmitoyl-LPC) was dissolved in physiological saline containing a surfactant, to prepare a 0.2 mmol/l sample. The absorbance was determined by the same procedures.
Further, the change in the absorbance was determined by the same procedures for each of commercially available control sera, 0.2 mM 1-oleoyl-LPA, and one prepared by adding 1-oleoyl-LPA to the commercially available control serum so as to be 0.2 mM. The determination accuracy (%) of LPA was calculated from each of the obtained changes in the absorbance by the following equation: […]

bovine LPA phosphatase [2] = molecular target: T2, bovine LPA phosphatase (Bos taurus, UniProt A6H757); assay: Substrate specificity, free phosphate quantified by molybdate/ascorbic acid absorbance at 795 nm; details: 37° C., 15 minutes, pH 7.5
T2 construct: from tissue; host or cells: bovine brain, cytosol fraction
T2 sequence (A6H757 33-429): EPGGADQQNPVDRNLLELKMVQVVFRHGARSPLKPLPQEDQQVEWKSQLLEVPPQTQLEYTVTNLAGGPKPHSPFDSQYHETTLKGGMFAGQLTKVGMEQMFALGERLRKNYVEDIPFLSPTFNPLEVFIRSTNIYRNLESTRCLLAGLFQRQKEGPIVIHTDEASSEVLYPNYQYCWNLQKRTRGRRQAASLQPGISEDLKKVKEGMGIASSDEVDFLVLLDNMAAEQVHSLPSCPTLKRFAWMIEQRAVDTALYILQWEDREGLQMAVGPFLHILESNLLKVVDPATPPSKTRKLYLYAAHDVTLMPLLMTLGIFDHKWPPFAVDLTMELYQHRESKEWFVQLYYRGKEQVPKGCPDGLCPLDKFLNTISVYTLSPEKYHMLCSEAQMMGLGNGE
Description: The activity for the LPA Phosphatase was determined in 50 μl of a reaction mixture [50 mM Tris-maleic acid (pH 7.5), 50 μM monooleoyl-[9,10-^3H]-lysophosphatidic acid (5×10^4 dpm), Triton™-X100 at 4-fold molar concentration of the substrate and enzymes at various concentrations]. The above mixture was incubated at 37° C. for 15 minutes, and the enzyme activity was determined by measuring the generated [^3H]monooleoylglycerol.
Each of the enzyme reaction solutions containing various substrates was reacted in the same manner as in Test Example 1, and 25 μl of perchloric acid was added to terminate the reaction. Seventy-five microliters of […], 25 μl of 10% ammonium molybdate and 50 μl of 10% ascorbic acid were further added thereto. The mixed solution was boiled at 95° C. for 5 minutes, and thereafter the absorbance at 795 nm was determined to quantify free phosphate.

bovine LPA phosphatase [3] = molecular target: T2, bovine LPA phosphatase; assay: Hydrolysis of [3H]1-oleoyl-LPA evaluated by TLC; details: 5 nmol substrate, enzyme 0-150 ng
Description: The experiment for the specific activity and the reaction rate, and the like is performed by using the following separation method. Concretely, the above enzyme reaction product (50 μl of a mixture) was lyophilized, and monooleoylglycerol was added as a carrier. Thereafter, the mixture was analyzed by thin-layer chromatography (TLC) using a solvent system of n-butanol/acetic acid/water (30.4/4.8/4.8). The TLC plate was exposed to iodine steam, and spots of the monooleoylglycerol were scraped off, and the radioactivity was determined.
Next, in order to confirm the reactivity with 1-oleoyl-LPA in detail, the enzyme reaction was carried out in the same manner as in Test Example 2 using [^3H]1-oleoyl-LPA (5 nmol, 1×10^5 dpm) as a substrate, and evaluated by TLC (FIG. 6).

bovine LPA phosphatase [4] = molecular target: T2, bovine LPA phosphatase; assay: Reactivity with [32P]LPA or [32P]PA, radioactivity of the aqueous layer; details: enzyme 0-175 ng, substrate 0-100 μM
Source text: FIG. 7 is a graph for evaluating the reactivity of bovine LPA phosphatase with [^32P]LPA or [^32P] PA, each being previously purified with TLC.
In order to further confirm in detail the reactivity when 1-oleoyl-LPA and dioleoyl-PA were used as substrates, [^32P]LPA and [^32P]PA were used as substrates, which had been labeled by using [γ-^32P]ATP and E. coli DG kinase [Waggoner, D. W. et al., (1996) J. Biol. Chem. 271, 16506–16509], and purified with TLC previously. Each of the reactions was carried out by varying the enzyme amount (0–175 ng), or varying the concentration of the substrate (0–100 μM). The enzyme reaction was terminated with 100 μl of 0.1 N hydrochloric acid in methanol solution, and 200 μl of chloroform and 1 M magnesium chloride were each added. The mixture was vigorously mixed, and thereafter centrifuged at 1,000×g for 5 minutes. The radioactivity of 175 μl of the aqueous layer was determined to evaluate the enzyme reaction (FIG. 7).

Compound | hydrolysis by bovine LPA phosphatase (free phosphate) (bovine LPA phosphatase [2]) | also measured
CCCCCCCC/C=C\CCCCCCCC(=O)OC[C@@H](O)COP(=O)(O)O [1-oleoyl-LPA, 1-oleoyl-lysophosphatidic acid] | strongly hydrolyzed | Changes in Absorbance ([1]; 0.2 mmol/l, 570 nm): 0.0988
CCCCCCCCCCCCCCCC(=O)OC[C@@H](O)COP(=O)([O-])OCC[N+](C)(C)C [LPC, 1-palmitoylphosphatidylcholine] |  | whether assayed by the determination reagent (change in absorbance at 570 nm) [1]: cannot substantially be done
CCCCCCCCCCCCCCCC(=O)OC[C@H](COP(=O)(O)O)OC(=O)CCCCCCCCCCCCCCC [PA, 1,2-dipalmitoylphosphatidic acid] |  | whether assayed by the determination reagent (change in absorbance at 570 nm) [1]: cannot substantially be done
[3H]/C(CCCCCCCC)=C(\[3H])CCCCCCCC(=O)OC[C@@H](O)COP(=O)(O)O [[^3H]1-oleoyl-LPA, monooleoyl-[9,10-^3H]-lysophosphatidic acid] |  | hydrolysis to [3H]1-oleoylglycerol (TLC) (bovine LPA phosphatase [3]): hydrolyzed
Lysophosphatidic acid [LPA] |  | reactivity of bovine LPA phosphatase with 32P-labelled substrate (bovine LPA phosphatase [4]): extremely high reactivity
bisphosphatidic acid | did not hydrolyze | 
cardiolipin | did not hydrolyze | 

Now from value to compound, other results behind:

hydrolysis by bovine LPA phosphatase (free phosphate) (bovine LPA phosphatase [2]) | Compound | also measured
did not hydrolyze | O=P(O)(O)OCC(O)CO (stereo not drawn) [glycerol phosphate] | 
did not hydrolyze | CCCCCCCCCCCCC/C=C/[C@@H](O)[C@@H](N)COP(=O)(O)O [sphingosine 1-phosphate] | 
did not hydrolyze | ceramide 1-phosphate | 
did not hydrolyze | phosphatidic acid | 
